Measurements: patent US8299086B2, “Pyrimidine derivatives” (Actelion Pharmaceuticals Ltd., priority 2007, dated 2012)

Molecular target: recombinant human S1P1 receptor (Homo sapiens, UniProt P21453)
Experiment: GTPγS assay to determine EC50 values
Format: biochemical
Conditions: 35S-GTPγS binding, membranes of CHO cells expressing recombinant human S1P1 receptor, pH 7.4
Method: GTPγS assay to determine EC50 values
GTPγS binding assays are performed in 96 well microtiter plates (Nunc, 442587) in a final volume of 200 μl, using membrane preparations of CHO cells expressing recombinant human S1P1 receptor. Assay conditions are 20 mM Hepes (Fluka, 54461), 100 mM NaCl (Fluka, 71378), 5 mM MgCl2 (Fluka, 63064), 0.1% BSA (Calbiochem, 126609), 1 μM GDP (Sigma, G-7127), 2.5% DMSO (Fluka, 41644), […] ^35S-GTPγS (Amersham Biosciences, SJ1320). The pH is 7.4. Test compounds are dissolved and diluted in 100% DMSO and pre-incubated at room temperature for 30 min in 150 μl of the above assay buffer, in the absence of ^35S-GTPγS. After addition of 50 μl of ^35S-GTPγS, the assay is incubated for 1 h at rt. The assay is terminated by transfer of the reaction mixture to a Multiscreen plate (Millipore, MAHFC1H60) using a cell harvester from Packard Biosciences, and the plates are washed with ice-cold 10 mM Na2HPO4/NaH2PO4 (70%/30%), dried, sealed at the bottom and, after addition of 25 μl MicroScint20 (Packard Biosciences, order#6013621), sealed on the top. Membrane-bound ^35S-GTPγS is measured with a TopCount from Packard Biosciences.
EC50 is the concentration of agonist inducing 50% of the maximal specific ^35S-GTPγS binding. Specific binding is determined by subtracting non-specific binding from maximal binding. Maximal binding is the amount of cpm bound to the Multiscreen plate in the presence of 10 μM of S1P. Non-specific binding is the amount of binding in the absence of an agonist in the assay.

Chain of recombinant human S1P1 receptor (P21453 whole entry): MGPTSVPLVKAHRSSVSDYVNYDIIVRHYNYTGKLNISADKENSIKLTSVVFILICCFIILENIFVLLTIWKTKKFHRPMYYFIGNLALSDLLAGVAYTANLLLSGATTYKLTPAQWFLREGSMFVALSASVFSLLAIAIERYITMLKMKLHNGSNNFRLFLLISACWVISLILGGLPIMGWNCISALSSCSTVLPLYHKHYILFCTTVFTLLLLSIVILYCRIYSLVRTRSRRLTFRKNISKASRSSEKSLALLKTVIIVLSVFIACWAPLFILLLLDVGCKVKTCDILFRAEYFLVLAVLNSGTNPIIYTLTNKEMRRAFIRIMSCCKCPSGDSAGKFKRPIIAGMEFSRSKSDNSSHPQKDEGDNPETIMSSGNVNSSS

Row | EC50 [nM] | SMILES
1 | 0.46 | CCNc1nc(C)cc(-c2nc(-c3cc(C)c(OCC(O)CNC(=O)CO)c(C)c3)no2)n1 (racemic) [Example 4, rac-N-(3-{4-[5-(2-Ethylamino-6-methyl-pyrimidin-4-yl)-[1,2,4]oxadiazol-3-yl]-2,6-dimethyl-phenoxy}-2-hydroxy-propyl)-2-hydroxy-acetamide]
2 | 0.88 | Cc1cc(-c2nc(-c3cc(C)c(OCC(O)CNC(=O)CO)c(C)c3)no2)nc(NC(C)C)n1 (racemic) [Example 7, rac-N-(3-{4-[5-(2-Isopropylamino-6-methyl-pyrimidin-4-yl)-[1,2,4]oxadiazol-3-yl]-2,6-dimethyl-phenoxy}-2-hydroxy-propyl)-2-hydroxy-acetamide]
3 | 26 | CCCOc1nc(C)cc(-c2nc(-c3cc(C)c(OCC(O)CNC(=O)CO)c(C)c3)no2)n1 (racemic) [Example 14, rac-N-(3-{4-[5-(6-Methyl-2-propoxy-pyrimidin-4-yl)-[1,2,4]oxadiazol-3-yl]-2,6-dimethyl-phenoxy}-2-hydroxy-propyl)-2-hydroxy-acetamide]
4 | 2.27 | Cc1cc(-c2nc(-c3cc(C)c(OCC(O)CO)c(C)c3)no2)nc(NC(C)C)n1 (racemic) [Example 19, rac-3-{4-[5-(2-Isopropylamino-6-methyl-pyrimidin-4-yl)-[1,2,4]oxadiazol-3-yl]-2,6-dimethyl-phenoxy}-propane-1,2-diol]
5 | 80.3 | Cc1cc(-c2nc(-c3ccc(C(O)CN)cc3)no2)nc(NC(C)C)n1 (racemic) [Example 144, rac-2-Amino-1-{4-[5-(2-isopropylamino-6-methyl-pyrimidin-4-yl)-[1,2,4]oxadiazol-3-yl]-phenyl}-ethanol]
6 | 25 | Cc1cc(-c2nc(-c3ccc(CC(O)CO)cc3)no2)nc(NC(C)C)n1 (racemic) [Example 149, rac-3-{4-[5-(2-Isopropylamino-6-methyl-pyrimidin-4-yl)-[1,2,4]oxadiazol-3-yl]-phenyl}-propane-1,2-diol]
7 | 1.2 | CCc1cc(-c2noc(-c3cc(C)nc(NCC(C)C)n3)n2)cc(C)c1OC[C@@H](O)CNC(=O)CO [Example 2, N—((S)-3-{2-Ethyl-4-[5-(2-isobutylamino-6-methyl-pyrimidin-4-yl)-[1,2,4]oxadiazol-3-yl]-6-methyl-phenoxy}-2-hydroxy-propyl)-2-hydroxy-acetamide]
8 | 0.17 | CCc1cc(-c2noc(-c3cc(C)nc(NC4CC4)n3)n2)cc(C)c1OC[C@@H](O)CNC(=O)CO [Example 31, N—((S)-3-{4-[5-(2-cyclopropylamino-6-methyl-pyrimidin-4-yl)-[1,2,4]oxadiazol-3-yl]-2-ethyl-6-methyl-phenoxy}-2-hydroxy-propyl)-2-hydroxy-acetamide]
9 | 1.37 | CCc1cc(-c2noc(-c3cc(CC(C)C)nc(NC)n3)n2)cc(C)c1OC[C@@H](O)CNC(=O)CO [Example 35, N—((S)-3-{2-ethyl-4-[5-(6-isobutyl-2-methylamino-pyrimidin-4-yl)-[1,2,4]oxadiazol-3-yl]-6-methyl-phenoxy}-2-hydroxy-propyl)-2-hydroxy-acetamide]
10 | 4.5 | CCOc1nc(CC)cc(-c2nc(-c3cc(C)c(OC[C@@H](O)CNC(=O)CO)c(CC)c3)no2)n1 [Example 41, N—((S)-3-{4-[5-(2-ethoxy-6-ethyl-pyrimidin-4-yl)-[1,2,4]oxadiazol-3-yl]-2-ethyl-6-methyl-phenoxy}-2-hydroxy-propyl)-2-hydroxy-acetamide]
11 | 0.97 | CCc1cc(-c2noc(-c3cc(CC(C)C)nc(OC)n3)n2)cc(C)c1OC[C@@H](O)CNC(=O)CO [Example 43, N—((S)-3-{2-ethyl-4-[5-(6-isobutyl-2-methoxy-pyrimidin-4-yl)-[1,2,4]oxadiazol-3-yl]-6-methyl-phenoxy}-2-hydroxy-propyl)-2-hydroxy-acetamide]
12 | 3.7 | Cc1cc(-c2nc(-c3cc(C)c(OC[C@@H](O)CNC(=O)CO)c(C)c3)no2)nc(OCC(C)C)n1 [Example 46]
13 | 1 | Cc1cc(-c2nc(-c3cc(C)c(OC[C@@H](O)CNC(=O)CO)c(Cl)c3)no2)nc(OC(C)C)n1 [Example 54, N—((S)-3-{2-chloro-4-[5-(2-isopropoxy-6-methyl-pyrimidin-4-yl)-[1,2,4]oxadiazol-3-yl]-6-methyl-phenoxy}-2-hydroxy-propyl)-2-hydroxy-acetamide]
14 | 0.25 | CCc1cc(-c2noc(-c3cc(C)nc(NC4CC4)n3)n2)cc(C)c1OC[C@@H](O)CO [Example 63, (S)-3-{4-[5-(2-cyclopropylamino-6-methyl-pyrimidin-4-yl)-[1,2,4]oxadiazol-3-yl]-2-ethyl-6-methyl-phenoxy}-propane-1,2-diol]
15 | 5.8 | COc1cc(-c2noc(-c3cc(C)nc(NC(C)C)n3)n2)cc(C)c1OC[C@@H](O)CO [Example 78, (S)-3-{4-[5-(2-isopropylamino-6-methyl-pyrimidin-4-yl)-[1,2,4]oxadiazol-3-yl]-2-methoxy-6-methyl-phenoxy}-propane-1,2-diol]
16 | 7.4 | Cc1cc(-c2nc(-c3cc(C)c(OC[C@@H](O)CO)c(Cl)c3)no2)nc(OC(C)C)n1 [Example 81, (S)-3-{2-chloro-4-[5-(2-isopropoxy-6-methyl-pyrimidin-4-yl)-[1,2,4]oxadiazol-3-yl]-6-methyl-phenoxy}-propane-1,2-diol]
17 | 5.7 | CCc1cc(-c2nc(-c3cc(C)nc(N(C)CC(C)C)n3)no2)cc(C)c1OC[C@@H](O)CNC(=O)CO [Example 86, (S)—N-[3-(2-Ethyl-4-{3-[2-(isobutyl-methyl-amino)-6-methyl-pyrimidin-4-yl]-[1,2,4]oxadiazol-5-yl}-6-methyl-phenoxy)-2-hydroxy-propyl]-2-hydroxy-acetamide]
18 | 39.4 | CCc1cc(-c2nnc(-c3cc(C)nc(OC(C)C)n3)o2)cc(C)c1OC[C@@H](O)CNC(=O)CO [Example 89]
19 | 3730 | CCc1cc(-c2nnc(-c3cc(C)nc(OCC(C)C)n3)s2)cc(C)c1OC[C@@H](O)CO [Example 99]
20 | 5.1 | CCc1cc(-c2noc(-c3cc(C)nc(N(CC)CC)n3)n2)cc(C)c1OC(CO)CO [Example 100, 2-{4-[5-(2-Diethylamino-6-methyl-pyrimidin-4-yl)-[1,2,4]oxadiazol-3-yl]-2-ethyl-6-methyl-phenoxy}-propane-1,3-diol]
21 | 72.1 | CCc1cc(-c2noc(-c3cc(C)nc(N(CC)CC)n3)n2)cc(C)c1OCCNCCO [Example 103]
22 | 8.4 | CCc1cc(-c2noc(-c3cc(C)nc(N(CC)CC)n3)n2)cc(C)c1OCCN1CCC(C(=O)O)C1 (centres unmarked) [Example 109]
23 | 12.5 | CCc1cc(-c2noc(-c3cc(C)nc(N(CC)CC)n3)n2)cc(C)c1OCCNC(=O)CN [Example 112]
24 | 22.3 | CCc1cc(-c2noc(-c3cc(C)nc(N(CC)CC)n3)n2)cc(C)c1OC[C@@H](O)CNS(=O)(=O)CC [Example 117]
25 | 1.4 | CCc1cc(-c2noc(-c3cc(C)nc(N(CC)CC)n3)n2)cc(C)c1OC[C@@H](O)CNCCC(=O)O [Example 126, 3-((S)-3-{4-[5-(2-diethylamino-6-methyl-pyrimidin-4-yl)-[1,2,4]oxadiazol-3-yl]-2-ethyl-6-methyl-phenoxy}-2-hydroxy-propylamino)-propionic acid]
26 | 74.4 | CCN(CC)c1nc(C)cc(-c2nc(-c3ccc(CCNS(C)(=O)=O)cc3)no2)n1 [Example 128, N-(2-{4-[5-(2-Diethylamino-6-methyl-pyrimidin-4-yl)-[1,2,4]oxadiazol-3-yl]-phenyl}-ethyl)-methanesulfonamide]
